Target: H1047R PIK3CA enzyme (Homo sapiens, UniProt P42336, H1047R)
Assay: ADP-Glo Biochemical PIK3CA Kinase Assay

Sequence of H1047R PIK3CA enzyme (P42336 whole entry H1047R): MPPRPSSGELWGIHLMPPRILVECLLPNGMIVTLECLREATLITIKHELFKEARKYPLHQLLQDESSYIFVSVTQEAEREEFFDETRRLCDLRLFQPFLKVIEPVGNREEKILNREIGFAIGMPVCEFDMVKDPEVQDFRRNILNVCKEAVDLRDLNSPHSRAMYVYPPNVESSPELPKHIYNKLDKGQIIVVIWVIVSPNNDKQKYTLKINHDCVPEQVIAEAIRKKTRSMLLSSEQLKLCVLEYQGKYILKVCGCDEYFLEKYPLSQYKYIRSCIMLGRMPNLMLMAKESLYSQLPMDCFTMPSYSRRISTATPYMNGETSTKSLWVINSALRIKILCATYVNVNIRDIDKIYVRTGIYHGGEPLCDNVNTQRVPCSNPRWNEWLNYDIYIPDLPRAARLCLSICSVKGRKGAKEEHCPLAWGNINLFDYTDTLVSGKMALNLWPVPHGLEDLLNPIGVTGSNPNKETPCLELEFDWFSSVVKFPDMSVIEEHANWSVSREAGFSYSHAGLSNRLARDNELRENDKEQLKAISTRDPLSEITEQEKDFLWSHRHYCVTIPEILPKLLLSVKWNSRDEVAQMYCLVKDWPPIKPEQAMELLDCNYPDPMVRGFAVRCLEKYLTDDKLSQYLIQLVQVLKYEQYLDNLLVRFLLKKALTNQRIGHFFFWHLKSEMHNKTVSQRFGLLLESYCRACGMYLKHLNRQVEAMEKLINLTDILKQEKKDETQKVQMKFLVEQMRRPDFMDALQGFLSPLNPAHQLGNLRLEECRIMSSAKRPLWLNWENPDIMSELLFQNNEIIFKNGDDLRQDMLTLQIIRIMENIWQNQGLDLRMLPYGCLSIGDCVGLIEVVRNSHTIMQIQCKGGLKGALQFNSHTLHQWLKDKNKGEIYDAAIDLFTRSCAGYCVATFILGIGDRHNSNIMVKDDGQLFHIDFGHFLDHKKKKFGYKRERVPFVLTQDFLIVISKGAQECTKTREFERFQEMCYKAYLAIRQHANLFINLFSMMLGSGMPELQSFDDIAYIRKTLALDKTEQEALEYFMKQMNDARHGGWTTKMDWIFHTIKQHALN
Sequence of H1047R PIK3CA enzyme (P27986 whole entry partner): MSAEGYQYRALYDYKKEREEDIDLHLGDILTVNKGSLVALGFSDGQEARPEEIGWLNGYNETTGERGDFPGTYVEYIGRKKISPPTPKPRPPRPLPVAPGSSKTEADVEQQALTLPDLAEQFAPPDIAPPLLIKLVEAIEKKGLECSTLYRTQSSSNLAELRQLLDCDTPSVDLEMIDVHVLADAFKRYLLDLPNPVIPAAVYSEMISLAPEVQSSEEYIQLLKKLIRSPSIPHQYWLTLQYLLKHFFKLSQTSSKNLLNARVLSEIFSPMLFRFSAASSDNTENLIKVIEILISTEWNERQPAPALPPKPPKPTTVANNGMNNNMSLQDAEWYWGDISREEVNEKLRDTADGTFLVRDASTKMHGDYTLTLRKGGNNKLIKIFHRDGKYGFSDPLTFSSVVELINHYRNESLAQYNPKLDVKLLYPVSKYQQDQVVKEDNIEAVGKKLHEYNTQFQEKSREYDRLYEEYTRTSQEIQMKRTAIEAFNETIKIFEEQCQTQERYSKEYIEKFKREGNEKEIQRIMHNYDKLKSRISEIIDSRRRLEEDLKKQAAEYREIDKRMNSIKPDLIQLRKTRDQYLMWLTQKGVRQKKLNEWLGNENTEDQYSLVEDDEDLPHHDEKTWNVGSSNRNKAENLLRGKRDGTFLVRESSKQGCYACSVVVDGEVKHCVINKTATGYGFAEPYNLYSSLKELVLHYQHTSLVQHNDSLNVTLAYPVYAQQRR

| IC50 | SMILES |
| --- | --- |
| 0.1 to 0.5 µM | NC1CN(c2cc(NC(=O)c3cc(F)cc(C(F)(F)F)c3)c3c(n2)C(=O)NC3c2cc(F)ccc2Cl)C1 (stereo not drawn) [Compound I-417] |
| ≤ 0.1 µM | COc1ccc(Oc2cc(NC(=O)c3cc(F)cc(C(F)(F)F)c3)c3c(c2)C(=O)NC3c2cc(F)ccc2Cl)nn1 (stereo not drawn) [Compound I-1147] |
| ≤ 0.1 µM | O=C(Nc1cc(-c2ccncc2F)nc2c1C(c1cc(F)ccc1Cl)NC2=O)c1cc(F)cc(C(F)(F)F)c1 (stereo not drawn) [Compound I-548] |
| 10 to 100 µM | O=C1N[C@H](c2cc(F)ccc2Cl)c2c(NC(=O)[C@H]3CCC[C@@H](OC(F)(F)F)C3)cccc21 (single isomer, unassigned) [Compound I-2217] |
| ≤ 0.1 µM | N#Cc1ccncc1-c1cc(NC(=O)c2cc(F)cc(C(F)(F)F)c2)c2c(c1)C(=O)NC2c1cc(F)ccc1Cl (stereo not drawn) [Compound I-1537] |
| ≤ 0.1 µM | CN1C[C@H](COc2cc(NC(=O)c3cc(F)cc(C(F)(F)F)c3)c3c(c2)C(=O)N[C@@H]3c2cc(F)ccc2Cl)CC1=O (single isomer, unassigned) [Compound I-1521] |
| ≤ 0.1 µM | O=C(Nc1cc(N2CC(F)C2)nc2c1C(c1cc(F)ccc1Cl)NC2=O)c1cc(F)cc(C(F)(F)F)c1 (stereo not drawn) [Compound I-488] |
| 0.1 to 0.5 µM | O=C(Nc1cc(Br)cc2c1C(c1ccccc1Cl)NC2=O)c1cc(F)cc(C(F)(F)F)c1 (stereo not drawn) [Compound I-394] |
| 0.1 to 0.5 µM | O=C(Nc1cc(OCC2(O)COC2)cc2c1C(c1cc(F)ccc1Cl)NC2=O)c1cc(F)cc(C(F)(F)F)c1 (stereo not drawn) [Compound I-1338] |
| 0.5 to 1 µM | O=C(Nc1ccnc2c1C(c1ccccc1Cl)NC2=O)c1cc(F)cc(C(F)(F)F)c1 (stereo not drawn) [Compound I-208] |
| 0.5 to 1 µM | O=C(Nc1cccc2c1C(c1cc(F)ccc1Cl)NC2=O)c1cc(Cl)cc(C(F)(F)F)c1 (stereo not drawn) [Compound I-725] |
| 1 to 10 µM | O=C1NC(c2cc(F)ccc2Cl)c2c(NC(=O)N3CCc4c3cccc4C(F)(F)F)cccc21 (stereo not drawn) [Compound I-2498] |
| 10 to 100 µM | O=C(Nc1cccc2c1[C@H]([C@@H]1COCCN1)NC2=O)c1cc(F)cc(C(F)(F)F)c1 (racemic) [Compound I-1901] |
| 0.1 to 0.5 µM | O=C(Nc1cccc2c1C(c1cc(Cl)cc(F)c1F)NC2=O)c1cc(F)cc(C(F)(F)F)c1 (stereo not drawn) [Compound I-401] |
| ≤ 0.1 µM | Cn1ncc(-c2cc(NC(=O)c3cc(F)cc(C(F)(F)F)c3)c3c(c2)C(=O)NC3c2cc(F)ccc2Cl)c1C#N (stereo not drawn) [Compound I-1699] |
| 1 to 10 µM | CC(C)CC1NC(=O)c2cccc(NC(=O)c3cc(F)cc(C(F)(F)F)c3)c21 (stereo not drawn) [Compound I-442] |
| ≤ 0.1 µM | Cc1ccccc1C1NC(=O)c2cc(CC(C)C)cc(NC(=O)c3cc(F)cc(C(F)(F)F)c3)c21 (stereo not drawn) [Compound I-268] |

| IC50 | SMILES |
| --- | --- |
| ≤ 0.1 µM | O=C(Nc1cc(-c2cnn3ccnc3c2)cc2c1C(c1cc(F)ccc1Cl)NC2=O)c1cc(F)cc(C(F)(F)F)c1 (stereo not drawn) [Compound I-1504] |
| 10 to 100 µM | O=C(Nc1cccc2c1C(c1cccc(B(O)O)c1)NC2=O)c1cc(F)cc(C(F)(F)F)c1 (stereo not drawn) [Compound I-717] |
| 0.1 to 0.5 µM | O=C(Nc1cc(C2COC2)nc2c1C(c1cc(F)ccc1Cl)NC2=O)c1cc(F)cc(C(F)(F)F)c1 (stereo not drawn) [Compound I-689] |
| 0.1 to 0.5 µM | CN1CCN(c2cc(NC(=O)c3cc(F)cc(C(F)(F)F)c3)c3c(n2)C(=O)NC3c2cc(F)ccc2Cl)CC1 (stereo not drawn) [Compound I-291] |
| 10 to 100 µM | Cn1cc(-c2ccc(Cl)c(C3NC(=O)c4cccc(NC(=O)c5cc(F)cc(C(F)(F)F)c5)c43)c2)cn1 (stereo not drawn) [Compound I-489] |
| 10 to 100 µM | O=C(Nc1cccc2c1[C@H](NC1CCCC1)NC2=O)c1cc(F)cc(C(F)(F)F)c1 (single isomer, unassigned) [Compound I-2250] |
| 10 to 100 µM | O=C1CCC[C@@H]([C@@H]2NC(=O)c3cccc(NC(=O)c4cc(F)cc(C(F)(F)F)c4)c32)C1 (single isomer, unassigned) [Compound I-2255] |
| ≤ 0.1 µM | CC(C)(O)COc1cc(NC(=O)c2cc(F)cc(C(F)(F)F)c2)c2c(c1)C(=O)N[C@H]2c1cc(F)ccc1Cl [Compound I-740] |
| ≤ 0.1 µM | Cc1ncc(Nc2cc(NC(=O)c3cc(F)cc(C(F)(F)F)c3)c3c(c2)C(=O)NC3c2cc(F)ccc2Cl)cn1 (stereo not drawn) [Compound I-1245] |
| 0.1 to 0.5 µM | O=C(Nc1cc(C(O)(O)C(F)(F)F)cc2c1C(c1cc(F)ccc1Cl)NC2=O)c1cc(F)cc(C(F)(F)F)c1 (stereo not drawn) [Compound I-484] |
| ≤ 0.1 µM | O=C(Nc1cc(CC2(O)CCC2)cc2c1C(c1cc(F)ccc1Cl)NC2=O)c1cc(F)cc(C(F)(F)F)c1 (stereo not drawn) [Compound I-706] |
| 10 to 100 µM | O=C(Nc1cccc2c1C(Cc1ccccc1)NC2=O)c1cc(F)cc(C(F)(F)F)c1 (stereo not drawn) [Compound I-1673] |
| ≤ 0.1 µM | N#Cc1cc(NC(=O)c2cc(F)cc(C(F)(F)F)c2)c2c(c1)C(=O)NC2c1cc(F)ccc1Cl (stereo not drawn) [Compound I-490] |
| 0.1 to 0.5 µM | CC(=O)N1CCC12CN(c1cc(NC(=O)c3cc(F)cc(C(F)(F)F)c3)c3c(c1)C(=O)NC3c1cc(F)ccc1Cl)C2 (stereo not drawn) [Compound I-1387] |
| 1 to 10 µM | O=C(Nc1cc(Br)cc2c1C(c1cc(F)ccc1Cl)NC2=O)c1cc(F)cc(CC2CCC2)c1 (stereo not drawn) [Compound I-1350] |
| ≤ 0.1 µM | Cc1ccccc1[C@@H]1NC(=O)c2c(C(N)=O)ccc(NC(=O)c3cc(F)cc(C(F)(F)F)c3)c21 [Compound I-508] |

The remaining lines, values behind:

| SMILES | IC50 |
| --- | --- |
| O=C1N[C@H](c2cc(F)ccc2Cl)c2c(NC(=O)N3C[C@H](O)c4ccc(F)cc43)cccc21 (stereo in doubt) [Compound I-2174] | 10 to 100 µM |
| COc1c(F)cc(Cl)cc1C(=O)Nc1cc(Br)cc2c1C(c1cc(F)ccc1Cl)NC2=O (stereo not drawn) [Compound I-858] | 1 to 10 µM |
| Nc1nc2ccc(-c3cc(NC(=O)c4cc(F)cc(C(F)(F)F)c4)c4c(c3)C(=O)N[C@@H]4c3cc(F)ccc3Cl)cn2n1 [Compound I-1444] | ≤ 0.1 µM |
| O=C1N[C@H](c2cc(F)ccc2Cl)c2c1cc(-c1ccc3ncnn3c1)cc2S(=O)(=O)Cc1ccccc1 (single isomer, unassigned) [Compound I-1905] | 1 to 10 µM |
| O=C1N[C@@H](c2cc(F)ccc2Cl)c2c(NC(=O)N3C[C@@](O)(C(F)(F)F)c4cc(F)ccc43)cc(Cl)nc21 (single isomer, unassigned) [Compound I-2705] | 1 to 10 µM |
| O=C1NC(c2cc(F)ccc2Cl)c2c(NC(=O)c3cccc4cccnc34)cc(Br)cc21 (stereo not drawn) [Compound I-602] | 1 to 10 µM |
| O=C(Nc1cc(-c2cn3ncnc3cn2)cc2c1[C@@H](c1cc(F)ccc1C(F)F)NC2=O)c1cc(F)cc(C(F)(F)F)c1 (single isomer, unassigned) [Compound I-2233] | 1 to 10 µM |
| COc1ccc(Cl)cc1C(=O)Nc1cc(Br)cc2c1C(c1cc(F)ccc1Cl)NC2=O (stereo not drawn) [Compound I-799] | 1 to 10 µM |
| O=C(Nc1cccc2c1C(C1CCCCC1O)NC2=O)c1cc(F)cc(C(F)(F)F)c1 (stereo not drawn) [Compound I-2060] | 10 to 100 µM |
| O=C(Nc1cc(Br)cc2c1C(c1cc(F)ccc1Cl)NC2=O)c1cc(F)ccc1C(F)F (stereo not drawn) [Compound I-837] | 1 to 10 µM |
| O=C(Nc1cc(-c2cn3ncnc3cn2)cc2c1[C@@H](c1cc(F)ccc1C(F)F)NC2=O)c1cc(F)cc(Cl)c1 (single isomer, unassigned) [Compound I-2258] | 1 to 10 µM |
| O=C1N[C@H](c2cc(F)ccc2Cl)c2c(N[C@H]3CCCNC3)cc(-c3ccc4ncnn4c3)cc21 (racemic) [Compound I-2023] | 10 to 100 µM |
| O=C(Nc1cc(O)cc2c1C(c1cc(F)ccc1Cl)NC2=O)c1cc(F)cc(Cl)c1 (stereo not drawn) [Compound I-383] | ≤ 0.1 µM |
| O=C1N[C@@H](c2cc(F)ccc2Cl)c2c(NC(=O)N3C[C@](O)(C(F)(F)F)c4ccccc43)cccc21 (single isomer, unassigned) [Compound I-2384] | 1 to 10 µM |
| O=C1N[C@H](c2cc(F)ccc2Cl)c2c(NC(=O)c3csc4ccccc34)cc(-c3ccc4ncnn4c3)cc21 [Compound I-1685] | 1 to 10 µM |
| CC(=O)N1CCCC(C(=O)Nc2cc(-c3ccc4ncnn4c3)cc3c2C(c2cc(F)ccc2Cl)NC3=O)C1 (stereo not drawn) [Compound I-1743] | 10 to 100 µM |
| CC(C)(O)c1cc(NC(=O)c2nsc3ccccc23)c2c(c1)C(=O)NC2c1cc(F)ccc1Cl (stereo not drawn) [Compound I-136] | ≤ 0.1 µM |
| O=C(Nc1cc(-c2cn[nH]c2)nc2c1[C@@H](c1cc(F)ccc1Cl)NC2=O)c1cc(F)cc(Cl)c1 [Compound I-195] | 1 to 10 µM |
| O=C(Nc1cc(-c2cc3ncnn3cc2F)cc2c1C(c1cc(F)ccc1Cl)NC2=O)c1cc(F)cc(C(F)(F)F)c1 (stereo not drawn) [Compound I-1828] | ≤ 0.1 µM |
| O=C1NC(c2cc(F)ccc2Cl)c2c(NC(=O)C3CCC4C(C3)C4(F)F)cc(Br)cc21 (stereo not drawn) [Compound I-1623] | 1 to 10 µM |
| NCCc1cc(NC(=O)N2C[C@](O)(C(F)(F)F)c3cc(F)ccc32)c2c(c1)C(=O)N[C@H]2c1cc(F)ccc1Cl (single isomer, unassigned) [Compound I-2582] | 0.1 to 0.5 µM |
| O=C(Nc1cc(-c2cnn(-c3ncccn3)c2)cc2c1C(c1cc(F)ccc1Cl)NC2=O)c1cc(F)cc(C(F)(F)F)c1 (single isomer, unassigned) [Compound I-1555] | ≤ 0.1 µM |
| CC(C)[C@H](N)C(=O)N1C(=O)c2cc(-c3ccc4ncnn4c3)cc(NC(=O)c3cc(F)cc(C(F)(F)F)c3)c2C1c1cc(F)ccc1Cl (stereo partly drawn) [Compound I-1343] | ≤ 0.1 µM |
| O=C1N[C@@H](c2cc(F)ccc2Cl)c2c(NC(=O)N3C[C@H](O)c4cc(F)c(F)cc43)cccc21 (single isomer, unassigned) [Compound I-2291] | 1 to 10 µM |
| O=C(Nc1cc(-c2ccc3ncnn3c2)cc2c1[C@H](c1cc(F)ccc1Cl)NC2=O)c1cccc(C(F)(F)F)c1 (stereo in doubt) [Compound I-1121] | ≤ 0.1 µM |
| O=C(Nc1cc(Br)cc2c1C(c1cc(F)ccc1Cl)NC2=O)c1cc(F)ccc1Cl (stereo not drawn) [Compound I-791] | 10 to 100 µM |
| O=C(Nc1cc(-c2ccc3ncnn3c2)cc2c1[C@@H](c1cc(F)ccc1Cl)NC2=O)c1cc(F)cc(Cl)c1 (stereo in doubt) [Compound I-1166] | 1 to 10 µM |
| Cc1ccccc1C1NC(=O)c2cccc(NC(=O)c3nsc4ccc(-c5ccccc5)cc34)c21 (stereo not drawn) [Compound I-378] | 1 to 10 µM |
| Cc1ccccc1C1NC(=O)c2cccc(NC(=O)c3nsc4ccc(-c5cnn(C)c5)cc34)c21 (stereo not drawn) [Compound I-445] | 1 to 10 µM |
| Cc1ncc(-c2cc(NC(=O)c3cc(F)cc(Cl)c3)c3c(c2)C(=O)NC3c2cc(F)ccc2Cl)cn1 (stereo not drawn) [Compound I-849] | ≤ 0.1 µM |
